Where “and” joins values, the source holds several entries; their conditions need not be identical. Identical values can stand only once. Like-named read-outs stand apart in the source and are kept apart here.
Key:
Format in all cases: cell-based
[1] = tested on: MDA-MB-231 cells; assay: CellTiter-Glo (CTG) ATP viability assay, MDA-MB-231; conditions: for Min Asymptote: MDA-MB-231, Hill fit of luminescence normalized to solvent control, one line per replicate; for DoR CTG: depth of response
Protocol: CTG (e.g., read by the CTG reader 115) is a cell viability assay that quantifies the amount of ATP present at the end of an experiment as an indicator of the number of live cells. The electronic controller 155 measures ATP content in each condition as a readout by a luminescent signal, which is normalized by the luminescence of the control (e.g., a control well) to determine cell viability relative to on-plate controls. In some embodiments, the CTG assay is performed by first removing 100 μL of media from each well on the well-plate 105, which is then replaced with an equal amount of CellTiter-Glo reagent (e.g., Promega, G7572). Assayed plates may be shaken at 500 RPM for 20 minutes and allowed to rest for 10 minutes. In some instances, 100 μL of volume from each well is transferred to a white 96-well plate (e.g., Perkin Elmer, 6005680). The electronic controller 155 collects luminescence data from each well using an Envision plate reader (e.g., Perkin Elmer) and normalized against the solvent control to measure ATP content. The electronic controller 155 fits a 4-parameter hill curve to the dose response to determine the EC50 and depth of response.

[2] = tested on: HCI-037 PDxO cells; assay: QPI on cells from patient-derived organoid HCI-037 (primary lesion); conditions: HCI-037, 48 h imaging, 3-parameter Hill model
Protocol: (§1) In some embodiments, the QPI microscope system 110 performs QPI on cells from patient-derived organoids and direct-from-patient samples. For example, the electronic controller 155 analyzes data on cells from a set of 5 organoids representing samples collected from two patients, as illustrated by a workflow 3400 in FIG. 24. The workflow 3400 is an experiment workflow illustrating how assays are analyzed by the QPI microscope system 110. In some embodiments, the QPI microscope system 110 images cells for 48 h, and uses an automatic segmentation algorithm, via the electronic controller 155, to identify individual cells from background, as shown in images 3405 and 3410 of FIG. 24. […] The electronic controller 155 determines the mass of each cell by summing the cell mass over the segmented area. In some embodiments, plots of mass over time reveal single cell growth rates, as shown by graph 3415 of FIG. 24. The graph 3415 is a mass vs. time plot showing DMSO treated cells growing cells at a typical location. Cells outlined in green are shown as green on the plot, other growing cells are shown in purple. The electronic controller 155 determine the specific growth rate (SGR) by fitting a line to time-series mass measurements and normalizing by an initial mass predicted by the fit to account for the effect of cell size on growth rate. The electronic controller 155 fits SGR as a function of dose to a sigmoidal dose response curve using a 3-parameter Hill model to extract dose response measurements, as shown by graph 3420 of FIG. 24. […] In some embodiments, EC50 measured by the QPI microscope system 110 is strongly concordant with gold standard techniques such as CTG over 27 conditions (e.g., 9 compounds, 3 breast cancer cell lines). […] As with cell line data, QPI data on cells from PDxO resolves differences in temporal dynamics of response to therapy, as shown in graph 3425 of FIG. 24. […] In some embodiments, the electronic controller 155 is configured to determine a drug response of each of the plurality of treatment samples from patient derived organoids.
The graphs 3500 includes graph A of the graphs 3500 showing normalized mass vs. time for HCI-037 (primary), HCI-038 (metastatic), and HCI-039 (pleural effusion) showing reduction in growth as concentration increases. Graphs B, C, D, and E of the graphs 3500 show dose response plots showing the differential response between different disease models. Graphs F, G, H, and I of the graphs 3500 show Hellinger distance vs. time plots showing the time of response for the different models treated with various therapies. In some embodiments, HCI-037, HCI-038, and HCI-039, PDxO models are used that are derived from primary lesion, bone metastasis, and pleural effusion, respectively, at different time points from a single patient during the course of treatment and progressive disease. In some embodiments, the electronic controller 155 is configured to determine a difference drug response from patient derived organoids. In some embodiments, the patient derived organoids are tumor organoids.

[3] = tested on: primary tumor cells (Patient #1); assay: QPI on primary cells after two-week expansion, Patient #1; conditions: Patient #1
Protocol: In some embodiments, the QPI microscope system 110 applies multiparametric QPI to primary cells from two clinical samples stored in cell bank at, for example, the Huntsman Cancer Institute plated after thawing from liquid nitrogen and CD45+ depleted to reduce the number of immune cells, as shown in FIG. 26.
For example, the primary cells are plated as a 2D monolayer in Clever's complete medium in a 96 well plate (e.g., the well-plate 105) and are allowed to acclimate to cell culture conditions for 18 h prior to dosing with treatments assigned to each patient by a physician. […] The image 3600 is a QPI image of primary cells from a direct from thaw patient derived sample. […] The graph 3610 is a histogram of cell mass used to computationally filter, using the electronic controller 155, for low mass cells (shown in red in the image 3600 and the graph 3605). By using a cutoff between the peaks at, for example, 72 pg, low mass cells can be isolated that are not growing and remove such cells from analysis. […] Using this cutoff, the electronic controller 155 measures the dose response for cells in each condition to determine the EC50 and DoR for each condition studied for the primary cells, as shown in the graph 3615. The graph 3615 is a dose response plot for primary cells treated with therapies assigned to the patient by a physician. […] In some embodiments, the electronic controller 155 determines a drug response in cells from patient derived samples. For example, the electronic controller 155 determines the drug response in therapy treatment samples from patient derived samples.
In some embodiments, both samples are expanded from primary cells in 2D culture using optimized ex vivo culture conditions for 2 weeks, changing media every 3 days to further purify the tumor cells, as shown in a workflow 3700 of FIG. 27.

[4] = tested on: HCI-038 PDxO cells; assay: QPI on cells from patient-derived organoid HCI-038 (bone metastasis); conditions: HCI-038, bone metastasis
Protocol: In some embodiments, the QPI microscope system 110 performs QPI on cells from patient-derived organoids and direct-from-patient samples. For example, the electronic controller 155 analyzes data on cells from a set of 5 organoids representing samples collected from two patients, as illustrated by a workflow 3400 in FIG. 24. The workflow 3400 is an experiment workflow illustrating how assays are analyzed by the QPI microscope system 110. In some embodiments, the QPI microscope system 110 images cells for 48 h, and uses an automatic segmentation algorithm, via the electronic controller 155, to identify individual cells from background, as shown in images 3405 and 3410 of FIG. 24. […] The electronic controller 155 determines the mass of each cell by summing the cell mass over the segmented area. In some embodiments, plots of mass over time reveal single cell growth rates, as shown by graph 3415 of FIG. 24. The graph 3415 is a mass vs. time plot showing DMSO treated cells growing cells at a typical location. Cells outlined in green are shown as green on the plot, other growing cells are shown in purple. […] In some embodiments, EC50 measured by the QPI microscope system 110 is strongly concordant with gold standard techniques such as CTG over 27 conditions (e.g., 9 compounds, 3 breast cancer cell lines). […]

[5] = tested on: HCI-039 PDxO cells; assay: QPI on cells from patient-derived organoid HCI-039 (pleural effusion); conditions: HCI-039, pleural effusion
Protocol: as §1, with “organoids. […]” for “organoids.”

[6] = Homo sapiens, MDA-MB-231, 72 h, 72 h CTG, MDA-MB-231, Hill fit, read-out: log10(EC50) (converted)
[7] = Homo sapiens, MDA-MB-231, MDA-MB-231 cell line, CellTiter-Glo, read-out: EC50, CTG
[8] = MDA-MB-231 cell line, CellTiter-Glo
[9] = Homo sapiens, MDA-MB-231, 24 h, 24 h CTG, MDA-MB-231, Hill fit, read-out: log10(EC50) (converted)

C[C@]12CC[C@@H]3c4ccc(O)cc4C[C@@H](CCCCCCCCC[S+]([O-])CCCC(F)(F)C(F)(F)F)[C@H]3[C@@H]1CC[C@@H]2O (some centres unmarked) [Fulvestrant]
Hill Slope ([1]; 72 h CTG, MDA-MB-231, Hill fit): 0.7641 | Min Asymptote ([1]; 72 h CTG): 0.01999 | EC50 [1, 6]: 31.4 µM | EC50 [1, 7]: 31.4 µM | DoR CTG [1, 8]: 1.0

O=c1[nH]cc(F)c(=O)[nH]1 [5FU, 5-Fluorouracil]
Hill Slope ([1]; 72 h CTG, MDA-MB-231, Hill fit): 1.997 | Min Asymptote ([1]; 72 h CTG): 0.4937 | EC50 [1, 6]: 6 µM | EC50 [1, 7]: 6 µM | DoR CTG [1, 8]: 0.5

CC(=O)c1c(C)c2cnc(Nc3ccc(N4CCNCC4)cn3)nc2n(C2CCCC2)c1=O [Palbociclib]
Hill Slope ([1]; 24 h CTG, MDA-MB-231, Hill fit): 6.945 | Min Asymptote ([1]; 24 h CTG): 0.2202 | Min Asymptote ([1]; 72 h CTG): 0.01895 and 7.98E−09 | EC50 [1, 9]: 14.2 µM | DoR CTG [1, 8]: 0.7

COc1cccc2c1C(=O)c1c(O)c3c(c(O)c1C2=O)C[C@@](O)(C(=O)CO)C[C@@H]3O[C@H]1C[C@H](N)[C@H](O)[C@H](C)O1 [Doxorubicin]
Hill Slope ([1]; 24 h CTG, MDA-MB-231, Hill fit): 1.125 | Min Asymptote ([1]; 24 h CTG): 0.4072 | Hill Slope ([1]; 72 h CTG, MDA-MB-231, Hill fit): 0.8064 and 0.7906 | log10(EC50) ([1]; 72 h CTG, MDA-MB-231, Hill fit): 0.5401 | Min Asymptote ([1]; 72 h CTG): 0.01711 and 0.03777 (2×) | EC50 [1, 9]: 1.25 µM | EC50 [1, 6]: 0.204 µM | EC50 [1, 7]: 0.3 µM | DoR CTG [1, 8]: 1.0 | dose response (SGR vs dose) [2]: strong response | EC50 compared with eribulin [3]: lower EC50 than eribulin

CC[C@]1(O)C[C@@H]2CN(CCc3c([nH]c4ccccc34)[C@@](C(=O)OC)(c3cc4c(cc3OC)N(C)[C@H]3[C@@](O)(C(=O)OC)[C@H](OC(C)=O)[C@]5(CC)C=CCN6CC[C@]43[C@@H]65)C2)C1 [Vinblastine]
Hill Slope ([1]; 24 h CTG, MDA-MB-231, Hill fit): 0.3445 | Min Asymptote ([1]; 24 h CTG): 0.5659 | Min Asymptote ([1]; 72 h CTG): 0.06356 and 0.2911 | EC50 [1, 9]: 1.83 µM | EC50 [1, 7]: 3 µM | DoR CTG [1, 8]: 1.0 | response compared with primary lesion model [4]: stronger response | dose response (SGR vs dose) [2]: lesser response | response compared with primary lesion model [5]: stronger response

CC(=O)O[C@@]12CO[C@@H]1C[C@H](O)[C@@]1(C)C(=O)[C@H](O)C3=C(C)[C@@H](OC(=O)[C@H](O)[C@@H](NC(=O)OC(C)(C)C)c4ccccc4)C[C@@](O)([C@@H](OC(=O)c4ccccc4)[C@H]21)C3(C)C [Docetaxel]
Hill Slope ([1]; 24 h CTG, MDA-MB-231, Hill fit): 7.175 | Min Asymptote ([1]; 24 h CTG): 0.8491 | log10(EC50) ([1]; 72 h CTG, MDA-MB-231, Hill fit): 2.342 | Min Asymptote ([1]; 72 h CTG): 0.3348 and 0.2561 | EC50 [1, 9]: 0.0137 µM | EC50 [1, 6]: 0.00396 µM | DoR CTG [1, 8]: 0.7

CCC(=C(c1ccc(O)cc1)c1ccc(OCCN(C)C)cc1)c1ccccc1 [4HT, 4-hydroxy-Tamoxifen]
Hill Slope ([1]; 24 h CTG, MDA-MB-231, Hill fit): 5.351 | log10(EC50) ([1]; 24 h CTG, MDA-MB-231, Hill fit): −0.5158 | Min Asymptote ([1]; 24 h CTG): 0.393 | log10(EC50) ([1]; 72 h CTG, MDA-MB-231, Hill fit): −0.9458 | Min Asymptote ([1]; 72 h CTG): 0.003315 and 0.01516 (2×) | EC50 ([1]; MDA-MB-231 cell line, CellTiter-Glo, read-out: EC50, CTG): 6.9 µM | DoR CTG [1, 8]: 1.0 | dose response (SGR vs dose) [2]: strong response

From patent publication US20250052985A1, “SYSTEM AND METHOD FOR QUANTITATIVE PHASE IMAGING FOR MULTI-PARAMETRIC SCREENING OF TUMOR THERAPY RESPONSE” (UNIVERSITY OF UTAH RESEARCH FOUNDATION, priority 2023, published 2025)
